Test results as given in patent US4628047A (priority 1982, dated 1986).
Converted amounts (≈) assume the structure as drawn. Counter-ions that a name gives are not always drawn. Like-named read-outs stand apart in the source and are kept apart here.

Tests used:
[1] = system: ADM-resistant P388 leukemia cells; assay: Antitumor enhancement effect in mice inoculated with ADM-resistant P388 leukemia cells; format: in vivo, CDF1 female mice; conditions: diltiazem HCl 125 mg/kg alone, i.p., 10 days
[2] = system: VCR-resistant P388 leukemia cells; assay: Antitumor enhancement effects in mice inoculated with VCR-resistant P388 leukemia cells; format: in vivo, CDF1 female mice; conditions: i.p., 10 days
P388 leukemia cells = assay: Growth inhibition of non-resistant P388 leukemia cells; format: cell-based; conditions: for IC50: Mus musculus
[3] = system: P388 leukemia cells having no resistance or resistance to VCR and ADM and human leukemia cells K562; assay: Antitumor enhancement effects of diltiazem in resistant and non-resistant tumor cells (summary); format: cell-based; conditions: regardless of whether the tumor cells are non-resistant or resistant
From the text: Antitumor enhancement effects of diltiazem in resistant and non-resistant tumor cells: […]

P388/ADM = assay: Growth inhibition of ADM-resistant P388 leukemia cells (P388/ADM); format: cell-based; conditions: for Enhancement effect: on ADM; for IC50: Mus musculus
K562/VCR = assay: Growth inhibition of VCR-resistant K562 leukemia cells (K562/VCR); format: cell-based, human; conditions: for Enhancement effect: on VCR; for IC50: Homo sapiens, VCR
[4] = system: P388 leukemia cells having resistance to vincristine; assay: Growth inhibition of VCR-resistant P388 leukemia cells (P388/VCR); format: cell-based; conditions: for Enhancement effect: on VCR; for IC50: Mus musculus
K562 = assay: Growth inhibition of K562 leukemia cells; format: cell-based, human; conditions: for Enhancement effect: on VCR; for IC50: Homo sapiens, K562, VCR
B16 melanoma cells F1 = assay: Antitumor enhancement effect in solid tumor cells, B16 F1; format: cell-based; conditions: on VCR, diltiazem 0 μM
[5] = system: Colon 26 tumor cells C26 mix; assay: Antitumor enhancement effect in solid tumor cells, C26 mix; format: cell-based; conditions: on VCR, diltiazem 0 μM
Colon 26 tumor cells N-5 = assay: Antitumor enhancement effect in solid tumor cells, colon 26 N-5; format: cell-based; conditions: on VCR, diltiazem 0 μM
B16 melanoma cells BL-6 = assay: Antitumor enhancement effect in solid tumor cells, B16 BL-6; format: cell-based; conditions: on VCR, diltiazem 0 μM
B16 melanoma cells F10 = assay: Antitumor enhancement effect in solid tumor cells, B16 F10; format: cell-based; conditions: on VCR, diltiazem 0 μM
[6] = system: Colon 26 tumor cells NL-33; assay: Antitumor enhancement effect in solid tumor cells, colon 26 NL-33; format: cell-based; conditions: on VCR, diltiazem 0 μM
[7] = system: Colon 26 tumor cells KL-2; assay: Antitumor enhancement effect in solid tumor cells, colon 26 KL-2; format: cell-based; conditions: on VCR, diltiazem 0 μM
B16 melanoma cells B2 = assay: Antitumor enhancement effect in solid tumor cells, B16 B2; format: cell-based; conditions: on VCR, diltiazem 0 μM
Colon 26 tumor cells N-1 = assay: Antitumor enhancement effect in solid tumor cells, colon 26 N-1; format: cell-based; conditions: on VCR, diltiazem 0 μM
[8] = system: B16 melanoma cells B16 mix; assay: Antitumor enhancement effect in solid tumor cells, B16 mix; format: cell-based; conditions: on VCR, diltiazem 0 μM
[9] = VCR 30 μg/kg + diltiazem HCl 60 mg/kg
[10] = VCR 30 μg/kg + diltiazem HCl 80 mg/kg
[11] = VCR 30 μg/kg + diltiazem HCl 100 mg/kg
[12] = VCR 30 μg/kg + diltiazem HCl 125 mg/kg
[13] = VCR 100 μg/kg + diltiazem HCl 60 mg/kg
[14] = VCR 100 μg/kg + diltiazem HCl 80 mg/kg
[15] = VCR 100 μg/kg + diltiazem HCl 100 mg/kg
[16] = VCR 100 μg/kg + diltiazem HCl 125 mg/kg
[17] = VCR 200 μg/kg + diltiazem HCl 60 mg/kg
[18] = VCR 200 μg/kg + diltiazem HCl 80 mg/kg
[19] = VCR 200 μg/kg + diltiazem HCl 100 mg/kg
[20] = VCR 200 μg/kg + diltiazem HCl 125 mg/kg
[21] = diltiazem hydrochloride 180 mg per day, 4 days, in addition to vincristine 1 mg/week

COc1ccc([C@@H]2Sc3ccccc3N(CCN(C)C)C(=O)[C@@H]2OC(C)=O)cc1 [Diltiazem HCl]
Survival time [1]: 13.0 ± 0 days
Survival time [2, 9]: 11.8 ± 1.9 days
T/V [2, 9]: 111%
Survival time [2, 10]: 13.8 ± 2.3 days
T/C [2, 10]: 121%
T/V [2, 10]: 130%
Survival time [2, 11]: 12.2 ± 1.3 days
T/V [2, 11]: 115%
Survival time [2, 12]: 13.6 ± 1.9 days
T/C [2, 12]: 119%
T/V [2, 12]: 125%
Survival time [2, 13]: 13.8 ± 1.7 days
T/C [2, 13]: 121%
T/V [2, 13]: 128%
T/C [2, 14]: 126%
T/V [2, 14]: 133%
T/C [2, 15]: 132%
T/V [2, 15]: 139%
T/C [2, 16]: 132%
T/V [2, 16]: 139%
T/C [2, 17]: 130%
T/V [2, 17]: 119%
T/C [2, 18]: 130%
T/V [2, 18]: 119%
T/C [2, 19]: 139%
T/V [2, 19]: 127%
Survival time [2, 20]: 17.0 ± 1.2 days
T/C [2, 20]: 149%
T/V [2, 20]: 137%
Survival time ([2]; diltiazem HCl 100 mg/kg alone): 11.8 ± 0.4 days
both symptoms (leukocytes, splenoma) (chronic myeloplast; [21]): both symptoms were remarkably improved
duration of the effect (chronic myeloplast; [21]): about two
side effect (chronic myeloplast; human, in vivo): no side effect was observed

COc1ccc([C@@H]2Sc3ccccc3N(CCN(C)C)C(=O)[C@@H]2OC(C)=O)cc1 [Diltiazem, d-3-acetoxy-cis-2,3-dihydro-5-[2-(dimethylamino)ethyl]-2-(p-methoxyphenyl)-1,5-benzothiazepin-4(5H)-one]
Enhancement effect (P388 leukemia cells; on ADM, diltiazem 10 μM): 1.3
Enhancement effect (P388 leukemia cells; on ADM, diltiazem 35 μM): 1.4
Enhancement effect (P388 leukemia cells; on ADM, diltiazem 100 μM): 1.7
Enhancement effect (P388 leukemia cells; on VCR, diltiazem 10 μM): 1.3
Enhancement effect (P388 leukemia cells; on VCR, diltiazem 35 μM): 3.4
Enhancement effect (P388 leukemia cells; on VCR, diltiazem 100 μM): 4.2
antitumor activity of the agents (ADM, VCR) [3]: the antitumor activity of the agents is enhanced by diltiazem
Enhancement effect (P388/ADM; diltiazem 10 μM): 4.5
Enhancement effect (P388/ADM; diltiazem 35 μM): 11.0
Enhancement effect (P388/ADM; diltiazem 100 μM): 19.3
Enhancement effect (K562/VCR; diltiazem 10 μM): 8.7
Enhancement effect (K562/VCR; diltiazem 35 μM): 48.8
Enhancement effect (K562/VCR; diltiazem 100 μM): 77.8
Enhancement effect ([4]; diltiazem 10 μM, P388/VCR): 9.7
Enhancement effect ([4]; diltiazem 35 μM, P388/VCR): 28.8
Enhancement effect ([4]; diltiazem 100 μM, P388/VCR): 54.0
Enhancement effect (K562; diltiazem 10 μM): 1.5
Enhancement effect (K562; diltiazem 35 μM): 2.3
Enhancement effect (K562; diltiazem 100 μM): 3.4

CC[C@]1(O)C[C@H]2CN(CCc3c([nH]c4ccccc34)[C@@](C(=O)OC)(c3cc4c(cc3OC)N(C=O)[C@H]3[C@@](O)(C(=O)OC)[C@H](OC(C)=O)[C@]5(CC)C=CCN6CC[C@]43[C@@H]65)C2)C1 [VCR, vincristine]
ratio of IC50 dose (enhancement effect of diltiazem) (B16 melanoma cells F1): 1.0
ratio of IC50 dose (enhancement effect of diltiazem) [5]: 1.0
ratio of IC50 dose (enhancement effect of diltiazem) (Colon 26 tumor cells N-5): 1.0
ratio of IC50 dose (enhancement effect of diltiazem) (B16 melanoma cells BL-6): 1.0
IC50 (P388 leukemia cells; P388, VCR, diltiazem 0 μM): 1.88 ± 0.13 ng/mL (≈ 2.28 nM)
IC50 (P388 leukemia cells; P388, VCR, with diltiazem 10 μM): 1.43 ± 0.12 ng/mL (≈ 1.73 nM)
IC50 (P388 leukemia cells; P388, VCR, with diltiazem 35 μM): 0.56 ± 0.06 ng/mL (≈ 0.679 nM)
IC50 (P388 leukemia cells; P388, VCR, with diltiazem 100 μM): 0.45 ± 0.02 ng/mL (≈ 0.545 nM)
Enhancement effect (P388 leukemia cells; on VCR, diltiazem 0 μM): 1
ratio of IC50 dose (enhancement effect of diltiazem) (B16 melanoma cells F10): 1.0
ratio of IC50 dose (enhancement effect of diltiazem) [6]: 1.0
ratio of IC50 dose (enhancement effect of diltiazem) [7]: 1.0
IC50 (K562/VCR; diltiazem 0 μM): 200 ± 16.3 ng/mL (≈ 242 nM)
IC50 (K562/VCR; with diltiazem 10 μM): 23 ± 2.16 ng/mL (≈ 27.9 nM)
IC50 (K562/VCR; with diltiazem 35 μM): 4.1 ± 0.36 ng/mL (≈ 4.97 nM)
IC50 (K562/VCR; with diltiazem 100 μM): 2.57 ± 0.41 ng/mL (≈ 3.12 nM)
Enhancement effect (K562/VCR; diltiazem 0 μM): 1
IC50 ([4]; P388, VCR, diltiazem 0 μM, P388/VCR): 29.7 ± 2.87 ng/mL (≈ 36 nM)
IC50 ([4]; P388, VCR, with diltiazem 10 μM, P388/VCR): 3.07 ± 0.09 ng/mL (≈ 3.72 nM)
IC50 ([4]; P388, VCR, with diltiazem 35 μM, P388/VCR): 1.03 ± 0.06 ng/mL (≈ 1.25 nM)
IC50 ([4]; P388, VCR, with diltiazem 100 μM, P388/VCR): 0.55 ± 0.17 ng/mL (≈ 0.667 nM)
IC50 ([4]; P388, read-out: concentration of vincristine showing 50% inhibition of the resistant cells, with diltiazem (hydrochloride) 35 μM or 100 μM): ≤ 1 ng/mL
Enhancement effect ([4]; diltiazem 0 μM, P388/VCR): 1
ratio of IC50 dose (enhancement effect of diltiazem) (B16 melanoma cells B2): 1.0
IC50 (K562; diltiazem 0 μM): 2.33 ± 0.24 ng/mL (≈ 2.82 nM)
IC50 (K562; with diltiazem 10 μM): 1.52 ± 0.09 ng/mL (≈ 1.84 nM)
IC50 (K562; with diltiazem 35 μM): 1 ± 0.17 ng/mL (≈ 1.21 nM)
IC50 (K562; with diltiazem 100 μM): 0.69 ± 0.1 ng/mL (≈ 0.836 nM)
Enhancement effect (K562; diltiazem 0 μM): 1
Survival time ([2]; VCR 30 μg/kg alone): 10.6 ± 2.1 days
T/C ([2]; VCR 30 μg/kg alone): 93%
T/V ([2]; VCR 30 μg/kg alone): 100%
Survival time ([2]; VCR 100 μg/kg alone): 10.8 ± 1.3 days
T/C ([2]; VCR 100 μg/kg alone): 95%
T/V ([2]; VCR 100 μg/kg alone): 100%
Survival time ([2]; VCR 200 μg/kg alone): 12.4 ± 1.0 days
T/C ([2]; VCR 200 μg/kg alone): 109%
T/V ([2]; VCR 200 μg/kg alone): 100%
number of leukocytes and splenoma (chronic myeloplast; after third administration of vincristine 1 mg per week): the number of leukocytes and the splenoma still increased
number of leukocytes and splenoma (chronic myeloplast; vincristine 1 mg per week and predonisolone 60 mg per day): the number of leukocytes and the splenoma were temporarity somewhat recovered
ratio of IC50 dose (enhancement effect of diltiazem) (Colon 26 tumor cells N-1): 1.0
ratio of IC50 dose (enhancement effect of diltiazem) [8]: 1.0

COc1cccc2c1C(=O)c1c(O)c3c(c(O)c1C2=O)C[C@@](O)(C(=O)CO)C[C@@H]3O[C@H]1C[C@H](N)[C@H](O)[C@H](C)O1 [ADM, doxorubicin]
IC50 (P388 leukemia cells; P388, ADM, diltiazem 0 μM): 10 ± 2.1 ng/mL (≈ 18.4 nM)
IC50 (P388 leukemia cells; P388, ADM, with diltiazem 10 μM): 7.7 ± 3.6 ng/mL (≈ 14.2 nM)
IC50 (P388 leukemia cells; P388, ADM, with diltiazem 35 μM): 6.9 ± 0.7 ng/mL (≈ 12.7 nM)
IC50 (P388 leukemia cells; P388, ADM, with diltiazem 100 μM): 6 ± 0.4 ng/mL (≈ 11 nM)
Enhancement effect (P388 leukemia cells; on ADM, diltiazem 0 μM): 1
IC50 (P388/ADM; ADM, diltiazem 0 μM): 592 ± 76.8 ng/mL (≈ 1090 nM)
IC50 (P388/ADM; ADM, with diltiazem 10 μM): 133 ± 18.4 ng/mL (≈ 245 nM)
IC50 (P388/ADM; ADM, with diltiazem 35 μM): 53.7 ± 3.1 ng/mL (≈ 98.8 nM)
IC50 (P388/ADM; ADM, with diltiazem 100 μM): 30.7 ± 4.1 ng/mL (≈ 56.5 nM)
IC50 (P388/ADM; read-out: concentration of doxorubicin showing 50% inhibition of the cells, with diltiazem 100 μM): ~30 ng/mL (≈ 55.2 nM)
IC50 (P388/ADM; read-out: dose for showing 50% inhibition of the tumor cells, doxorubicin alone): 592 ng/mL (≈ 1090 nM)
Enhancement effect (P388/ADM; diltiazem 0 μM): 1
